{
  "source": "paper PMC10610545",
  "about": "“Preclinical Evaluation of an Imidazole-Linked Heterocycle for Alzheimer’s Disease” (Pharmaceutics, 2023)",
  "key": {"5XFAD mice": {"system": "5XFAD mice", "assay": "Novel object recognition test (NORT) in 5XFAD mice", "type": "in vivo, mouse", "conditions": "2 mg/Kg in drinking water, 4 weeks, vs 5XFAD Control", "experimental": "Four-month-old female and male Wt and 5XFAD mice (n = 32) were used to carry out cognitive and molecular analyses. […] The animals had free access to food and water and were kept under standard temperature conditions (22 ± 2 °C) and 12 h/12 h light/dark cycles (300 lx/0 lx). […] After 4 weeks of treatment, cognitive tests, including short- and long-term memory and OLT, were performed to study the effects of treatment on learning and memory. Weight and water consumption were controlled each week, and the LSL33 concentration was adjusted accordingly to reach the optimal dose until euthanasia.\nShort- and long-term recognition memories involving cortical areas and the hippocampus were evaluated by NORT. The experimental apparatus used for this test was a 90-degree, two-arm, 25-cm-long, 20-cm-high maze of black polyvinyl chloride. The light intensity in the middle of the field was 30 lux. First, mice were individually habituated to the apparatus for 10 min per day for 3 days. On day 4, the animals were allowed to freely explore two identical objects (A and A or B and B) placed at the end of each arm for a 10 min acquisition trial (first trial-familiarization). […] During the short-term memory retention test, the time that the animal spent exploring the new object (TN) and the old object (TO) was recorded. […] TN and TO were measured from the video recordings from each trial session. […]"}, "[1]": {"assay": "Pharmacokinetics of LSL33 in CD1 mice (plasma and brain)"}, "[2]": {"conditions": "male, CD1, mouse, brain, po, 2 mg/kg"}, "[3]": {"conditions": "male, CD1, mouse, plasma, oral, 2 mg/kg"}},
  "data": [
    {"smiles": "Cl.c1ccc2sc(-c3ncc[nH]3)cc2c1", "note": "[LSL33, 2-(Benzo[b]thiophene-2-yl)-1H-imidazole hydrochloride]", "values": [
      {"measurement": "NORT discrimination index, short- and long-term memory", "setting": "5XFAD mice", "value": "significant improvement in cognitive impairment in both short- and long-term memories"},
      {"measurement": "concentration at 15 min", "setting": "[1]; [2]", "value": 15.2, "unit": "ng/g"},
      {"measurement": "concentration at 30 min", "setting": "[1]; [2]", "value": 6.7, "unit": "ng/g"},
      {"measurement": "AUC(0-inf)", "setting": "[1]; [3]", "value": 3050, "unit": "ng·h/mL"},
      {"measurement": "AUC(0-t)", "setting": "[1]; [3]", "value": 2950, "unit": "ng·h/mL"},
      {"measurement": "Cmax", "setting": "[1]; [3]", "value": "950 ± 620", "unit": "ng/mL"},
      {"measurement": "Tmax", "setting": "[1]; [3]", "value": 0.25, "unit": "h"},
      {"measurement": "half-life", "setting": "[1]; male, CD1, mouse, plasma, oral, 2 mg/kg, t1/2β (terminal elimination half-life), CD1 mice, single 2 mg/kg dose", "value": 5.21, "unit": "h"},
      {"measurement": "AUC0-1440/AUC0-∞ ratio", "setting": "[1]; plasma, 2 mg/kg", "value": 0.97},
      {"measurement": "t1/2β (terminal elimination half-life)", "setting": "[1]; plasma, CD1 mice, single 2 mg/kg dose, 2 mg/kg", "value": "5.2135 ± 0.5817", "unit": "h"},
      {"measurement": "maximum mean concentration in plasma as share of the drug administered", "setting": "[1]; single oral dose", "value": "≤ 1", "unit": "%"}
    ]}
  ]
}
